How the values were obtained:
Format in all cases: cell-based
MDA-MB-453 = experiment: Cancer cell panel, cell viability (resazurin): Breast, MDA-MB-453; conditions: MDA-MB-453 (Breast), 72 hours; labelled drug combined with Example 3
A375 = experiment: Cancer cell panel, cell viability (resazurin): Melanoma, A375; conditions: 72 hours, labelled drug combined with Example 3
LoVo = experiment: Cancer cell panel, cell viability (resazurin): Colon, LoVo; conditions: 72 hours, labelled drug combined with Example 3
SkBr-3 = experiment: Cancer cell panel, cell viability (resazurin): Breast, SkBr-3; conditions: SkBr-3 (Breast), 72 hours; labelled drug combined with Example 3
DLD-1 = experiment: Cancer cell panel, cell viability (resazurin): Colon, DLD-1; conditions: DLD-1 (Colon), 72 hours; labelled drug combined with Example 3
SK-MEL-24 = experiment: Cancer cell panel, cell viability (resazurin): Melanoma, SK-MEL-24; conditions: SK-MEL-24 (Melanoma), 72 hours; labelled drug combined with Example 3
Raji = experiment: Cancer cell panel, cell viability (resazurin): Burkitt's Lymphoma, Raji; conditions: 72 hours, labelled drug combined with Example 3
MDA-MB-157 = experiment: Cancer cell panel, cell viability (resazurin): Breast, MDA-MB-157; conditions: MDA-MB-157 (Breast), 72 hours; labelled drug combined with Example 3
Colo205 = experiment: Cancer cell panel, cell viability (resazurin): Colon, Colo205; conditions: 72 hours, labelled drug combined with Example 3
SK-MEL-3 = experiment: Cancer cell panel, cell viability (resazurin): Melanoma, SK-MEL-3; conditions: SK-MEL-3 (Melanoma), 72 hours; labelled drug combined with Example 3
HCT116 = experiment: Cancer cell panel, cell viability (resazurin): Colon, HCT116; conditions: 72 hours, labelled drug combined with Example 3
SKOV-3 = experiment: Cancer cell panel, cell viability (resazurin): Ovarian, SKOV-3; conditions: SKOV-3 (Ovarian), 72 hours; labelled drug combined with Example 3
Caov-3 = experiment: Cancer cell panel, cell viability (resazurin): Ovarian, Caov-3; conditions: Caov-3 (Ovarian), 72 hours; labelled drug combined with Example 3
H1299 = experiment: Cancer cell panel, cell viability (resazurin): NSCLC, H1299; conditions: 72 hours, labelled drug combined with Example 3
H2122 = experiment: Cancer cell panel, cell viability (resazurin): NSCLC, H2122; conditions: 72 hours, labelled drug combined with Example 3
MDA-MB-231 = experiment: Cancer cell panel, cell viability (resazurin): Breast, MDA-MB-231; conditions: MDA-MB-231 (Breast), 72 hours; labelled drug combined with Example 3
BxPC3 = experiment: Cancer cell panel, cell viability (resazurin): Pancreatic, BxPC3; conditions: 72 hours, labelled drug combined with Example 3
Daudi = experiment: Cancer cell panel, cell viability (resazurin): Burkitt's Lymphoma, Daudi; conditions: 72 hours, labelled drug combined with Example 3
K562 = experiment: Cancer cell panel, cell viability (resazurin): Leukemia, K562; conditions: 72 hours, labelled drug combined with Example 3
EOL-1 = experiment: Cancer cell panel, cell viability (resazurin): Leukemia, EOL-1; conditions: EOL-1 (Leukemia), 72 hours; labelled drug combined with Example 3
BT-474 = experiment: Cancer cell panel, cell viability (resazurin): Breast, BT-474; conditions: BT-474 (Breast), 72 hours; labelled drug combined with Example 3
RPMI8226 = experiment: Cancer cell panel, cell viability (resazurin): multiple myeloma, RPMI8226; conditions: 72 hours, labelled drug combined with Example 3
H460 = experiment: Cancer cell panel, cell viability (resazurin): NSCLC, H460; conditions: 72 hours, labelled drug combined with Example 3
ZR-75-1 = experiment: Cancer cell panel, cell viability (resazurin): Breast, ZR-75-1; conditions: ZR-75-1 (Breast), 72 hours; labelled drug combined with Example 3
WM-115 = experiment: Cancer cell panel, cell viability (resazurin): Melanoma, WM-115; conditions: WM-115 (Melanoma), 72 hours; labelled drug combined with Example 3
HL60 = experiment: Cancer cell panel, cell viability (resazurin): Leukemia, HL60; conditions: 72 hours, labelled drug combined with Example 3
BT-20 = experiment: Cancer cell panel, cell viability (resazurin): Breast, BT-20; conditions: BT-20 (Breast), 72 hours; labelled drug combined with Example 3
H23 = experiment: Cancer cell panel, cell viability (resazurin): NSCLC, H23; conditions: 72 hours, labelled drug combined with Example 3
T47D = experiment: Cancer cell panel, cell viability (resazurin): Breast, T47D; conditions: 72 hours, labelled drug combined with Example 3
OVCAR-3 = experiment: Cancer cell panel, cell viability (resazurin): Ovarian, OVCAR-3; conditions: OVCAR-3 (Ovarian), 72 hours; labelled drug combined with Example 3
HT29 = experiment: Cancer cell panel, cell viability (resazurin): Colon, HT29; conditions: 72 hours, labelled drug combined with Example 3
A549 = experiment: Cancer cell panel, cell viability (resazurin): NSCLC, A549; conditions: 72 hours, labelled drug combined with Example 3
H1975 = experiment: Cancer cell panel, cell viability (resazurin): NSCLC, H1975; conditions: 72 hours, labelled drug combined with Example 3

In the case of `CC(=O)O[C@H]1C(=O)[C@@]2(C)[C@H]([C@H](OC(=O)c3ccccc3)[C@]3(O)C[C@H](OC(=O)[C@H](O)[C@@H](NC(=O)c4ccccc4)c4ccccc4)C(C)=C1C3(C)C)[C@]1(OC(C)=O)CO[C@@H]1C[C@@H]2O` [Paclitaxel, paclitaxel], the “synergy, additivity or antagonism of the combination of Example 3 with the anti-cancer drug” value (from here on “synergy, additivity or antagonism”) (MDA-MB-453) is reported as “+ (Additive relative to each agent alone (CI = 0.9-1 by Bliss Independence Model and <0.9 by Highest Single Agent Model))”, the “synergy, additivity or antagonism” value (A375) is reported as “+ (Additive relative to each agent alone (CI = 0.9-1 by Bliss Independence Model and <0.9 by Highest Single Agent Model))” and the “synergy, additivity or antagonism” value (LoVo) is reported as “+ (Additive relative to each agent alone (CI = 0.9-1 by Bliss Independence Model and <0.9 by Highest Single Agent Model))”. For the same molecule, the “synergy, additivity or antagonism” value (SkBr-3) was “+ (Additive relative to each agent alone (CI = 0.9-1 by Bliss Independence Model and <0.9 by Highest Single Agent Model))”, the “synergy, additivity or antagonism” value (DLD-1) was “+ + + (Synergy relative to each agent alone (CI = 0.4-0.74 by Bliss Independence Model))” and the “synergy, additivity or antagonism” value (SK-MEL-24) was “+ (Additive relative to each agent alone (CI = 0.9-1 by Bliss Independence Model and <0.9 by Highest Single Agent Model))”. The “synergy, additivity or antagonism” value (Raji) was “+ + (Slight synergy relative to each agent alone (CI = 0.75-0.9 by Bliss Independence Model))”, the “synergy, additivity or antagonism” value (MDA-MB-157) was “+ (Additive relative to each agent alone (CI = 0.9-1 by Bliss Independence Model and <0.9 by Highest Single Agent Model))” and the “synergy, additivity or antagonism” value (Colo205) was “+ + + (Synergy relative to each agent alone (CI = 0.4-0.74 by Bliss Independence Model))”. For the same molecule, the “synergy, additivity or antagonism” value (SK-MEL-3) was “+ (Additive relative to each agent alone (CI = 0.9-1 by Bliss Independence Model and <0.9 by Highest Single Agent Model))”, the “synergy, additivity or antagonism” value (HCT116) was “+ (Additive relative to each agent alone (CI = 0.9-1 by Bliss Independence Model and <0.9 by Highest Single Agent Model))” and the “synergy, additivity or antagonism” value (SKOV-3) was “+ (Additive relative to each agent alone (CI = 0.9-1 by Bliss Independence Model and <0.9 by Highest Single Agent Model))”. For the same molecule, the “synergy, additivity or antagonism” value (Caov-3) was “+ (Additive relative to each agent alone (CI = 0.9-1 by Bliss Independence Model and <0.9 by Highest Single Agent Model))”, the “synergy, additivity or antagonism” value (H1299) was “+ (Additive relative to each agent alone (CI = 0.9-1 by Bliss Independence Model and <0.9 by Highest Single Agent Model))” and the “synergy, additivity or antagonism” value (H2122) was “+ (Additive relative to each agent alone (CI = 0.9-1 by Bliss Independence Model and <0.9 by Highest Single Agent Model))”. The “synergy, additivity or antagonism” value (MDA-MB-231) was “+ (Additive relative to each agent alone (CI = 0.9-1 by Bliss Independence Model and <0.9 by Highest Single Agent Model))”, the “synergy, additivity or antagonism” value (BxPC3) was “+ + (Slight synergy relative to each agent alone (CI = 0.75-0.9 by Bliss Independence Model))” and the “synergy, additivity or antagonism” value (Daudi) was “+ (Additive relative to each agent alone (CI = 0.9-1 by Bliss Independence Model and <0.9 by Highest Single Agent Model))”. For the same molecule, the “synergy, additivity or antagonism” value (K562) was “+ (Additive relative to each agent alone (CI = 0.9-1 by Bliss Independence Model and <0.9 by Highest Single Agent Model))”, the “synergy, additivity or antagonism” value (EOL-1) was “+ (Additive relative to each agent alone (CI = 0.9-1 by Bliss Independence Model and <0.9 by Highest Single Agent Model))” and the “synergy, additivity or antagonism” value (BT-474) was “+ (Additive relative to each agent alone (CI = 0.9-1 by Bliss Independence Model and <0.9 by Highest Single Agent Model))”. For the same molecule, the “synergy, additivity or antagonism” value (RPMI8226) was “+ (Additive relative to each agent alone (CI = 0.9-1 by Bliss Independence Model and <0.9 by Highest Single Agent Model))”, the “synergy, additivity or antagonism” value (H460) was “+ + (Slight synergy relative to each agent alone (CI = 0.75-0.9 by Bliss Independence Model))” and the “synergy, additivity or antagonism” value (ZR-75-1) was “+ (Additive relative to each agent alone (CI = 0.9-1 by Bliss Independence Model and <0.9 by Highest Single Agent Model))”. For the same molecule, the “synergy, additivity or antagonism” value (WM-115) was “+ (Additive relative to each agent alone (CI = 0.9-1 by Bliss Independence Model and <0.9 by Highest Single Agent Model))”, the “synergy, additivity or antagonism” value (HL60) was “+ + (Slight synergy relative to each agent alone (CI = 0.75-0.9 by Bliss Independence Model))” and the “synergy, additivity or antagonism” value (BT-20) was “+ + (Slight synergy relative to each agent alone (CI = 0.75-0.9 by Bliss Independence Model))”. The “synergy, additivity or antagonism” value (H23) was “+ + (Slight synergy relative to each agent alone (CI = 0.75-0.9 by Bliss Independence Model))”, the “synergy, additivity or antagonism” value (T47D) was “+ (Additive relative to each agent alone (CI = 0.9-1 by Bliss Independence Model and <0.9 by Highest Single Agent Model))” and the “synergy, additivity or antagonism” value (OVCAR-3) was “+ (Additive relative to each agent alone (CI = 0.9-1 by Bliss Independence Model and <0.9 by Highest Single Agent Model))”. The “synergy, additivity or antagonism” value (HT29) was “+ (Additive relative to each agent alone (CI = 0.9-1 by Bliss Independence Model and <0.9 by Highest Single Agent Model))”, the “synergy, additivity or antagonism” value (A549) was “+ (Additive relative to each agent alone (CI = 0.9-1 by Bliss Independence Model and <0.9 by Highest Single Agent Model))” and the “synergy, additivity or antagonism” value (H1975) was “+ (Additive relative to each agent alone (CI = 0.9-1 by Bliss Independence Model and <0.9 by Highest Single Agent Model))”.
